Assay results published in patent US8440836B2, “Heterocyclic alkanol derivatives” (Bayer Intellectual Property GmbH, priority 2010, dated 2013).

Key:
Leptosphaeria nodorum = Leptosphaeria nodorum test (wheat)/protective; format: in vivo; conditions: wheat plants, protective spray, 500 ppm active ingredient, evaluation 8 days after inoculation
Sphaerotheca fuliginea = assay: Sphaerotheca test (cucumber)/protective; conditions: cucumber plants, protective spray, 500 ppm active ingredient, evaluation 7 days after inoculation
Method: • Solvent: 49 parts by weight of N,N-dimethylformamide • Emulsifier: 1 part by weight of alkylaryl polyglycol ether
To produce an appropriate active ingredient formulation, 1 part by weight of active ingredient is mixed with the specified amounts of solvent and emulsifier, and the concentrate is diluted with water to the desired concentration. To test for protective activity, young cucumber plants are sprayed with the formulation of active ingredient at the stated application rate. 1 day after the treatment, the plants are inoculated with a spore suspension of Sphaerotheca fuliginea. The plants are then placed in a greenhouse at 70% relative air humidity and a temperature of 23° C. Evaluation follows 7 days after the inoculation.

Puccinia triticina = Puccinia triticina test (wheat)/protective; format: in vivo; conditions: wheat plants, protective spray, 500 ppm active ingredient, evaluation 8 days after inoculation
Text: Evaluation follows 8 days after the inoculation.

Leptosphaeria maculans = assay: Leptosphaeria test (oilseed rape)/seed treatment; format: in vivo; conditions: rapeseed treatment, dose 50 g/dt, greenhouse 10° C. 14 days and 18° C. 7 days
Method: The test was conducted under greenhouse conditions. […] treated with an inventive active compound or a combination of inventive active compounds were sown in 6×6 cm vessels, into a mixture of steamed field soil and to sand (1:1). The test compound(s) were dissolved in N-methyl-2-pyrrolidone and diluted to the desired concentration with water. Perlite was inoculated with spores of Leptosphaeria maculans. The infected perlite was distributed between the treated […]. The seeds were covered with a top layer of steamed field soil and sand (1:1) and incubated in a greenhouse at 10° C. for 14 days and at 18° C. for 7 days.

Venturia inaequalis = assay: Venturia test (apple)/protective; conditions: apple plants, protective spray, 100 ppm active ingredient, evaluation 10 days after inoculation
Method: • Solvent: 24.5 parts by weight of acetone • 24.5 parts by weight of dimethylacetamide • Emulsifier: 1 part by weight of alkylaryl polyglycol ether
To produce an appropriate active ingredient formulation, 1 part by weight of active ingredient is mixed with the specified amounts of solvent and emulsifier, and the concentrate is diluted with water to the desired concentration. To test for protective activity, young plants are sprayed with the active ingredient formulation at the stated application rate. After the spray coating has dried on, the plants are inoculated with an aqueous conidia suspension of the apple scab pathogen Venturia inaequalis and then remain in an incubation cabin at about 20° C. and 100% relative air humidity for 1 day. The plants are then placed in a greenhouse at about 21° C. and a relative air humidity of about 90%. Evaluation follows 10 days after the inoculation.

Rhizoctonia solani = assay: Rhizoctonia test (cotton)/seed treatment; format: in vivo; conditions: cottonseed treatment, dose 50 g/dt, greenhouse 20° C. 7 days
Method: The test was conducted under greenhouse conditions. Cottonseeds treated with an inventive active compound or a combination of inventive active compounds were sown in 6×6 cm vessels, into a mixture of steamed field soil and sand (1:1). The test compound(s) were dissolved in N-methyl-2-pyrrolidone and diluted to the desired concentration with water. Perlite was inoculated with spores of Rhizoctonia solani. The infected perlite was distributed between the treated cottonseeds. The seeds were covered with a top layer of clay granules and incubated in a greenhouse at 20° C. for 7 days.

[1] = test system: Blumeria graminis f.sp. hordei; assay: Blumeria graminis test (barley)/protective; format: in vivo; conditions: barley plants, protective spray, 500 ppm active ingredient, evaluation 7 days after inoculation
Fusarium culmorum = assay: Fusarium test (wheat)/seed treatment; format: in vivo; conditions: dose 50 g/dt, greenhouse 20° C. 14 days
Method: (§1) The test was conducted under greenhouse conditions. Wheat seeds treated with an inventive active compound or a combination of inventive active compounds were sown in 6×6 cm vessels, into a mixture of steamed field soil and sand (1:1). The test compound(s) were dissolved in N-methyl-2-pyrrolidone and diluted to the desired concentration with water. Wheat kernels were inoculated with spores of Fusarium culmorum. The infected and ground kernels were distributed between the treated wheat seeds. The seeds were covered with a top layer of clay granules and incubated in a greenhouse at 20° C. for 14 days. Evaluation was effected by counting the plants which emerged.

Septoria tritici = Septoria tritici test (wheat)/protective; format: in vivo; conditions: wheat plants, protective spray, 500 ppm active ingredient, evaluation 21 days after inoculation
[2] = logP by HPLC (EEC Directive 79/831 Annex V.A8); format: physicochemical; conditions: HPLC reversed-phase C18, method [a]: LC-MS, pH 2.7, 0.1% aqueous formic acid / acetonitrile, gradient 10% to 95% acetonitrile
Microdochium nivale = assay: Microdochium test (wheat)/seed treatment; format: in vivo; conditions: dose 50 g/dt, greenhouse 10° C. 21 days
Method: as §1, with “Microdochium nivale.” for “Fusarium culmorum.”, “steamed field soil and sand (1:1)” for “clay granules”, “10°” for “20°”, “21” for “14”, “days.” for “days. Evaluation was effected by counting the plants which emerged.”

## CC(C)(C)C(O)(COc1ccc(I)cc1)c1cncs1 (stereo not shown) [Compound 1]
Leptosphaeria nodorum
  efficacy: 100%
Sphaerotheca fuliginea
  efficacy: 100%
Puccinia triticina
  efficacy: 100%
Leptosphaeria maculans
  efficiency (emerged plants): 70%
Venturia inaequalis
  efficacy: 99%
Rhizoctonia solani
  efficiency (emerged and diseased plants): 70%
[1]
  efficacy: 100%
Fusarium culmorum
  efficiency (emerged plants): 100%
Septoria tritici
  efficacy: 100%

## CC(C)(C)C(O)(COc1ccc(Br)cc1)c1cncs1 (stereo not shown) [Compound 2]
Leptosphaeria nodorum
  efficacy: 100%
Sphaerotheca fuliginea
  efficacy: 99%
Puccinia triticina
  efficacy: 100%
Venturia inaequalis
  efficacy: 93%
[1]
  efficacy: 100%
Septoria tritici
  efficacy: 100%

## CO/N=C/c1ccc(OCC(O)(c2cncs2)C(C)(C)C)cc1 (stereo not shown) [Compound 3]
Leptosphaeria nodorum
  efficacy: 92%
Puccinia triticina
  efficacy: 89%
Venturia inaequalis
  efficacy: 100%
[1]
  efficacy: 100%
Septoria tritici
  efficacy: 83%

## CC1(C(O)(COc2ccc(Cl)cc2)c2cncs2)CC1 (stereo not shown) [Compound 14]
Sphaerotheca fuliginea
  efficacy: 95%
Venturia inaequalis
  efficacy: 98%
[2]
  logP: logP 3.11^[a]; [M + H]^+ = 310; 312

## CC1(C(O)(COc2ccc(Br)cc2)c2cncs2)CCCCC1 (stereo not shown) [Compound 33]
Sphaerotheca fuliginea
  efficacy: 100%
Puccinia triticina
  efficacy: 83%
Venturia inaequalis
  efficacy: 99%
[1]
  efficacy: 89%
[2]
  logP: logP 4.37^[a]; [M + H]^+ = 396/398

## CC(C)(C)C(O)(COc1ccc(SC(F)(F)F)cc1)c1cncs1 (stereo not shown) [Compound 41]
Leptosphaeria nodorum
  efficacy: 100%
Sphaerotheca fuliginea
  efficacy: 95%
Puccinia triticina
  efficacy: 100%
Venturia inaequalis
  efficacy: 95%
[1]
  efficacy: 100%
Septoria tritici
  efficacy: 71%
[2]
  logP: logP 3.98^[a]; [M + H]^+ = 378

## CC(C)(/C=C/Cl)C(O)(COc1ccc(I)cc1)c1cncs1 (stereo not shown) [Compound 53]
Leptosphaeria nodorum
  efficacy: 83%
Sphaerotheca fuliginea
  efficacy: 94%
Puccinia triticina
  efficacy: 100%
[1]
  efficacy: 94%
Septoria tritici
  efficacy: 100%
[2]
  logP: logP 3.92^[a]; [M + H]^+ = 450

## OC(Cc1cncs1)(Cc1ccccc1Cl)C1(Cl)CC1 (stereo not shown) [Compound 57]
Leptosphaeria nodorum
  efficacy: 88%
Sphaerotheca fuliginea
  efficacy: 100%
Leptosphaeria maculans
  efficiency (emerged plants): 80%
Venturia inaequalis
  efficacy: 100%
Rhizoctonia solani
  efficiency (emerged and diseased plants): 80%
[1]
  efficacy: 100%
Fusarium culmorum
  efficiency (emerged plants): 89%
Microdochium nivale
  efficiency (emerged plants): 78%
Septoria tritici
  efficacy: 70%

## OC(Cc1cncs1)(Cc1ccccc1F)C1(Cl)CC1 (stereo not shown) [Compound 60]
Leptosphaeria nodorum
  efficacy: 100%
Sphaerotheca fuliginea
  efficacy: 100%
Puccinia triticina
  efficacy: 95%
Leptosphaeria maculans
  efficiency (emerged plants): 80%
Venturia inaequalis
  efficacy: 100%
Rhizoctonia solani
  efficiency (emerged and diseased plants): 90%
[1]
  efficacy: 100%
Fusarium culmorum
  efficiency (emerged plants): 89%
Microdochium nivale
  efficiency (emerged plants): 100%
Septoria tritici
  efficacy: 94%
[2]
  logP: logP 3.06^[a]; [M + H]^+ = 312

## CC(C)(C)C(O)(COc1ccc(C2CC2)cc1)c1cncs1 (stereo not shown) [Compound 79]
Leptosphaeria nodorum
  efficacy: 86%
Sphaerotheca fuliginea
  efficacy: 93%
Venturia inaequalis
  efficacy: 100%
[1]
  efficacy: 100%
Septoria tritici
  efficacy: 88%
[2]
  logP: logP 3.73^[a]; [M + H]^+ = 318
